Reference: patent publication US20250230129A1, “POLYAMIDE COMPOUNDS, METHOD FOR PREPARING SAME, AND MEDICAL USE THEREOF” (priority 2022, published 2025)
Read-outs that look alike come from different tables or passages of the source. Square brackets hold non-standard residues; d marks the D form. Peptide text beside a SMILES is read from it. * marks the point of attachment. Piperidin1yl(4-NH2,4-COOH) = NC1(C(=O)O)CCN(*)CC1; dPhLac = O=C(O)[C@H](O)Cc1ccccc1; X4 = COC(=O)NC1CCN(*)CC1

Experiments:
[1] = PK and blood-brain barrier permeability in mice; type: in vivo; details: male ICR mice, intravenous 1 mg/kg
Experimental: The compounds of the present disclosure were investigated for pharmacokinetic characteristics and blood-brain barrier permeability in mice.
Healthy male ICR mice were randomly grouped, 6 animals per group. For each test compound, 3 groups of animals were used. The first group of animals was used for collecting blood and brain 5 min after the administration, and the second group of animals and the third group of animals were used for cross blood collection at subsequent time points; each test compound was intravenously administered (1 mg/kg) to corresponding groups of mice, and blood sampling via submaxillary veins of the mice was carried out at different time points. Drug contents in plasma and brain tissues at different time points were measured by an LC-MS/MS method, the brain-to-blood ratio B/P was calculated by using EXCEL software, and pharmacokinetic parameters were calculated by using DAS3.0 software.

μ receptor = μ receptor (Homo sapiens (Human), UniProt P35372); test: μ receptor affinity assay (3H-DAMGO); type: binding
κ receptor = κ receptor (Homo sapiens (Human), UniProt P41145); test: Competitive Kappa receptor binding assay (3H-U69593)
δ receptor = δ receptor (Homo sapiens (Human), UniProt P41143); test: Competitive delta receptor binding assay (3H-DADLE)
[2] = target: κ-opioid receptor (Kappa) (Homo sapiens (Human), UniProt P41145); test: In vitro functional assay, HTRF cAMP-Gi in CHO-K1-OPRK1 cells; type: cell-based
[3] = read-out: In vitro agonistic effects on k-opioid receptors EC50

Row | Compound | Ki (μ receptor) [nM] | Ki (κ receptor) [nM] | Ki (δ receptor) [nM] | EC50 [2] [nM] | Ki (μ receptor; read-out: μ receptor Ki) [nM] | Ki (κ receptor; read-out: κ receptor Ki) [nM] | Ki (δ receptor; read-out: δ receptor Ki) [nM] | also measured
1 | CC(C)C[C@@H](NC(=O)[C@@H](Cc1ccccc1)NC(=O)[C@H](N)Cc1ccccc1)C(=O)N[C@H](CCCCN)C(=O)N1CCC(N)(C(=O)O)CC1 [CR845, D-Phe-D-Phe-D-Leu-D-Lys-[ω(4-aminopiperidine-4-carboxylic acid)]-OH, reference compound] | – | – | – | – | – | – | – | B/P (brain-to-blood ratio) ([1]; blood and brain 5 min after administration): 0.015; AUC(0-inf) ([1]; mouse, plasma): 653 ng·h/mL; Vd ([1]; mouse, plasma): 0.6 L/kg; clearance ([1]; mouse, plasma): 27 mL/min/kg; half-life ([1]; mouse, plasma, read-out: t½ (converted)): 15.6 min; Cmax ([1]; mouse, plasma): 1620 ng/mL
2 | CC(C)C[C@@H](NC(=O)[C@@H](Cc1ccccc1)NC(=O)[C@H](O)Cc1ccccc1)C(=O)N[C@H](CCCCN)C(=O)N1CCC(N)(C(=O)O)CC1 [Compound 3] (H-[dPhLac][dF][dL][dK]-{Piperidin1yl(4-NH2,4-COOH)}) | > 1000 | 3.31 | > 1000 | – | – | – | – | –
3 | CC(C)C[C@@H](NC(=O)[C@@H](Cc1ccccc1)NC(=O)C[C@H](N)c1ccccc1)C(=O)N[C@H](CCCCN)C(=O)N1CCC(N)(C(=O)O)CC1 [Compound 4-100, 4-amino-1-[(2R)-6-amino-2-[(2R)-2-[(2R)-2-[(3S)-3-amino-3-phenylpropionylamino]-3-phenylpropionylamino]-4-methylpentanoylamino]hexanoyl]piperidine-4-carboxylic acid] | > 1000 | 59.9 | > 1000 | – | – | – | – | –
4 | COC(=O)N=S1(=O)CCN(C(=O)[C@@H](CCCCN)NC(=O)[C@@H](CC(C)C)NC(=O)[C@@H](Cc2ccccc2)NC(=O)[C@H](N)Cc2ccccc2)CC1 [Compound 4B] | > 1000 | 1.88 | > 1000 | 0.65 | – | – | – | –
5 | COC(=O)NC1CCN(C(=O)[C@@H](C)NC(=O)[C@@H](CC(C)C)NC(=O)[C@@H](Cc2ccccc2)NC(=O)[C@H](N)Cc2ccccc2)CC1 [Compound 12A] (H-[dF][dF][dL][dA]-X4) | > 1000 | 0.34 | > 1000 | 0.07 | – | – | – | –
6 | COC(=O)C1(N)CCN(C(=O)[C@@H](CCCCN)NC(=O)[C@@H](CC(C)C)NC(=O)[C@@H](Cc2ccccc2)NC(=O)N(C)C(CN)c2ccccc2)CC1 (some centres unmarked) [Compound 14] | > 1000 | 1.1 | > 1000 | 8.2 | – | – | – | –
7 | CC(C)C[C@@H](NC(=O)[C@@H](Cc1ccccc1)NC(=O)N(C)C(CN)c1ccccc1)C(=O)C[C@H](CCCCN)C(=O)N1CCC(N)(C(=O)OC(C)C)CC1 (some centres unmarked) [Compound 15] | – | – | – | – | > 1000 | 0.83 | > 1000 | EC50 [2, 3]: 0.63 nM
8 | CNC(=O)NC1CCN(C(=O)[C@@H](CCCCN)NC(=O)[C@@H](CC(C)C)NC(=O)[C@@H](Cc2ccccc2)NC(=O)N(CCN)Cc2ccccc2)CC1 [Compound 17] | > 1000 | 0.44 | > 1000 | 0.3 | – | – | – | –
9 | CC(C)C[C@@H](NC(=O)[C@@H](Cc1ccccc1)NC(=O)N(CCN)Cc1cccnc1)C(=O)C[C@H](CCCCN)C(=O)N1CCC(N)(C(=O)O)CC1 [Compound 18] | – | – | – | – | > 1000 | 0.21 | > 1000 | EC50 [2, 3]: 0.18 nM
10 | CC(C)C[C@@H](NC(=O)[C@@H](Cc1ccccc1)NC(=O)N(CCN)Cc1cncnc1)C(=O)C[C@H](CCCCN)C(=O)N1CCC(N)(C(=O)O)CC1 [Compound 19] | – | – | – | – | > 1000 | 0.9 | > 1000 | EC50 [2, 3]: 0.87 nM
11 | CN=S1(=O)CCN(C(=O)[C@@H](CCCCN)NC(=O)[C@@H](CC(C)C)NC(=O)[C@@H](Cc2ccccc2)NC(=O)N(CCN)Cc2ccccc2)CC1 [Compound 20] | > 1000 | 0.58 | > 1000 | 0.52 | – | – | – | –
12 | CNCCN(Cc1ccccc1)C(=O)N[C@H](Cc1ccccc1)C(=O)N[C@H](CC(C)C)C(=O)C[C@H](CCCCN)C(=O)N1CCC(N)(C(=O)O)CC1 [Compound 28] | – | – | – | – | > 1000 | 3.31 | > 1000 | –
